One assay addresses T1, His-AKT (Full Length) (Homo sapiens, UniProt P31749).
T1 construct: 0.1 ng/μl His-AKT (Full Length); His; purchased Invitrogen P2999
In words: AKT enzyme assay. In kind it is biochemical. Conditions: enzyme inhibition; 160 uM ATP, 90 min at 25° C., Caliper mobility shift. On the procedure: (§1) The IC50 values reported for the compounds in the Experimental section were derived from the following protocol for the p70S6K and AKT enzyme assays.
A TTP Mosquito liquid handling instrument was used to place 125 nl of the appropriate concentration of inhibitor in 100% DMSO (for a dose response curve calculation) into each well of a 384-well plate. To this reaction components were added to a final volume of 12.5 μl: • 0.1 ng/μl His-AKT (Full Length), (Invitrogen, Part # P2999, Lot # 641228C). • 160 uM ATP (Fluke, 02055) • 1 mM DTT (Sigma, D0632) • 1 mM MgCl2 (Sigma, M1028) • 1 μM substrate peptide (sequence FITC-AHA-GRPRTSSFAEG-NH2), synthesized by Tufts Peptide Synthesis service. • 100 mM HEPES pH 7.5 (Calbiochem, 391338) • 0.015% Brij-35 (Sigma, B4184)
The reaction was incubated for 90 min at 25° C., and then stopped by the addition of 70 μl of Stop buffer (100 mM HEPES pH 7.5, 0.015% Brij-35, 10 mM EDTA (Sigma, E7889)).
The plate was read on a Caliper LC 3000 in an Off-Chip mobility shift assay format, using the following parameters for a 12-sipper chip: screening pressure −2.3 psi, upstream voltage −500, and downstream voltage −3000. These conditions caused unphosphorylated substrate and phosphorylated product peptide to resolve as separate peaks allowing direct measurement of percentage of conversion of substrate to product. The percent conversion was plotted against concentration of inhibitor to produce a sigmoidal dose response curve, from which an IC50 was calculated.

For assay [1], the target named is T2, P70S6K (T412E mutant, Millipore) (Homo sapiens, UniProt P23443, T412E).
T2 construct: purchased Millipore
The assay is described as follows: P70S6K enzyme assay. The assay is classed as biochemical. Conditions: enzyme inhibition; 24 μM ATP, 90 min at 25° C., Caliper mobility shift. On the procedure:
as §1
P70S6K inhibitor compounds were diluted and plated in 96 well plates. A reaction mixture including the following components was then added to the compound plate to initiate the enzyme reaction; P70S6K (3 nM, T412E mutant, Millipore) was mixed with 24 μM ATP in an assay buffer containing 100 mM Hepes (pH 7.5), 5 mM MgCl2, 1 mM DTT, 0.015% Brij and 1 μM of the substrate peptide FITC-AHA-AKRRRLSSLRA-OH (derived from the S6 ribosomal protein sequence, FITC=fluorescein isothiocyanate, AHA=6-aminohexanoic acid). The reaction was incubated for 90 min at 25° C., before the addition of 10 mM EDTA to stop the reaction. The proportion of substrate and product (phosphorylated) peptide was analysed on a Caliper Life Sciences Lab Chip 3000, using a pressure of −1.4 psi, and upstream and downstream voltages of −3000 and −700 respectively. Product peaks were resolved before substrate peaks on the resulting chromatograms.

Molecules are shown by their SMILES. pIC50: −log10 of the molar value.

T1 sequence (P31749 whole entry): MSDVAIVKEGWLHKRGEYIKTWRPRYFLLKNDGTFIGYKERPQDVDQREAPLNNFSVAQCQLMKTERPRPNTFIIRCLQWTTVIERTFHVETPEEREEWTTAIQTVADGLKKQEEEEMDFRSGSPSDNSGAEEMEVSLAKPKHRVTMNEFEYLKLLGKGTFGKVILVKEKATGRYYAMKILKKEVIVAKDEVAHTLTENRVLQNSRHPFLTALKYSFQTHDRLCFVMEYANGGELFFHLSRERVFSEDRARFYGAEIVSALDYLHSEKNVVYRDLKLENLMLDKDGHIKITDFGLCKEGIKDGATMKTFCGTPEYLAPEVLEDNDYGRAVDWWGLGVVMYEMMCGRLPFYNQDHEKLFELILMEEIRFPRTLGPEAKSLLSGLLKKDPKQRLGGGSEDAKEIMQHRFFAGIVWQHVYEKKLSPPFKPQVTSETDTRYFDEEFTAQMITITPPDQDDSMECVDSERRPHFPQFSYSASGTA
T2 sequence (P23443 whole entry T412E): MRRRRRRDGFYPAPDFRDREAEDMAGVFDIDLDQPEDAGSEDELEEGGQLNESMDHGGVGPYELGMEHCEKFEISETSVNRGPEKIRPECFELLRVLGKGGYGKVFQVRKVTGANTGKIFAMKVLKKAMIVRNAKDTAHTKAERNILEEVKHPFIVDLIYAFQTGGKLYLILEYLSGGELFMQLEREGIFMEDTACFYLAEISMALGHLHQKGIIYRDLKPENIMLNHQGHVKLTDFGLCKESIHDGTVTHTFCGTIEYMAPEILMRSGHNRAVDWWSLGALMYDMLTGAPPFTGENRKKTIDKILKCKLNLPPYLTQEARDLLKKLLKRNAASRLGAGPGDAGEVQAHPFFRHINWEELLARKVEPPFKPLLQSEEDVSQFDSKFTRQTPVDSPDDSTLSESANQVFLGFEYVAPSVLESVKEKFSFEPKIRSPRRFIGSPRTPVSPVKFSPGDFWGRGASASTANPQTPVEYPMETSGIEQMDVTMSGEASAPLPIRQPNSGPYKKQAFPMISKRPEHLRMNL

What is called pIC50 is the negative decadic logarithm of the IC50, by convention in mol/L. `O=C1CNc2ncnc(N3CCC(c4nc(-c5ccc(F)c(C(F)(F)F)c5)cn4CCN4CCCC4)CC3)c2N1` [Compound A39, 4-{4-[4-(4-fluoro-3-trifluoromethyl-phenyl)-1-(2-pyrrolidin-1-yl-ethyl)-1H-imidazol-2-yl]-piperidin-1-yl}-7,8-dihydro-5H-pteridin-6-one]: the pIC50 (on His-AKT (Full Length); in assay [1]) was greater than 7.60 each time.
For the molecule `Cc1ccc(-c2cn(CCN3CCCC3)c(C3CCN(c4ncnc5c4NC(=O)CN5)CC3)n2)cc1` [Compound A58, 4-{4-[4-(4-MethylPhenyl)-1-(2-pyrrolidin-1-yl-ethyl)-1H-imidazol-2-yl]-piperidin-1-yl}-7,8-dihydro-5H-pteridin-6-one], the pIC50 (on His-AKT (Full Length); in assay [1]) was less than 6.00 each time.
For `CN(C)CCn1cc(-c2ccc(F)c(C(F)(F)F)c2)nc1C1CCN(c2ncnc3c2CCN3)CC1` [Compound A3, 2-(2-(1-(6,7-dihydro-5H-pyrrolo[2,3-d]pyrimidin-4-yl)piperidin-4-yl)-4-(4-fluoro-3-(trifluoromethyl)phenyl)-1H-imidazol-1-yl)-N,N-dimethylethanamine], the pIC50 (at His-AKT (Full Length); in assay [1]) was greater than 7.60 throughout.
Consider `O=C1CNc2ncnc(N3CCC(c4nc(-c5ccnc(C6CC6)c5)cn4CCN4CCC4)CC3)c2N1` [Compound A44, 4-{4-[1-(2-azetidin-1-yl-ethyl)-4-(2-cyclopropyl-pyridin-4-yl)-1H-imidazol-2-yl]-piperidin-1-yl}-7,8-dihydro-5H-pteridin-6-one], for which the pIC50 is 6.30 to 7.00 on His-AKT (Full Length) and greater than 7.60 in assay [1].
As to `CN(C)CCn1cc(-c2ccc(F)c(Cl)c2)nc1C1CCN(c2ncnc3c2CCCN3)CC1` [Compound A35, (2-{4-(3-Chloro-4-fluoro-phenyl)-2-[1-(5,6,7,8-tetrahydro-pyrido[2,3-d]pyrimidin-4-yl)-piperidin-4-yl]-imidazol-1-yl}-ethyl)-dimethylamine], the pIC50 (at His-AKT (Full Length); in assay [1]) was greater than 7.60 in each case.
`O=C1CNc2ncnc(N3CCC(c4nc(-c5ccc(F)c(C(F)(F)F)c5)cn4CCN4CCC4)CC3)c2N1` [Compound A40, 4-{4-[4-(4-fluoro-3-trifluoromethyl-phenyl)-1-(2-azetidin-1-yl-ethyl)-1H-imidazol-2-yl]-piperidin-1-yl}-7,8-dihydro-5H-pteridin-6-one]: the pIC50 (on His-AKT (Full Length); in assay [1]) was greater than 7.60 in each case.
With `CN(C)CCn1cc(-c2ccnc(C(F)(F)F)c2)nc1C1CCN(c2ncnc3c2CCC3)CC1` [Compound A18, {2-[2-[1-(6,7-Dihydro-5H-cyclopentapyrimidin-4-yl)-piperidin-4-yl]-4-(2-trifluoromethyl-pyridin-4-yl)-imidazol-1-yl]-ethyl}-dimethylamine], the pIC50 at His-AKT (Full Length) is 6.30 to 7.00; in assay [1], 7.00 to 7.59.
Consider `Fc1ccc(-c2cn(CCN3CCC3)c(C3CCN(c4ncnc5c4CCN5)CC3)n2)cc1Cl` [Compound A31, 4-{4-[1-(2-Azetidin-1-yl-ethyl)-4-(3-chloro-4-fluoro-phenyl)-1H-imidazol-2-yl]-piperidin-1-yl}-6,7-dihydro-5H-pyrrolo[2,3-d]pyrimidine], for which the pIC50 (at His-AKT (Full Length); in assay [1]) was greater than 7.60 in each case.
Consider `CN(C)CCn1cc(C(F)(F)F)nc1C1CCN(c2ncnc3c2NC(=O)CN3)CC1` [Compound A55, 4-{4-[4-(4-trifouromethyl)-1-(2-dimethylamino-1-yl-ethyl)-1H-imidazol-2-yl]-piperidin-1-yl}-7,8-dihydro-5H-pteridin-6-one], for which the pIC50 (at His-AKT (Full Length); in assay [1]) was less than 6.00 in each case.
Take `COc1ccc(-c2cn(CCN(C)C)c(C3CCN(c4ncnc5c4NC(=O)CN5)CC3)n2)cc1` [Compound A52, 4-{4-[4-(4-Methoxyl-henyl)-1-(2-dimethylamin-1-yl-ethyl)-1H-imidazol-2-yl]-piperidin-1-yl}-7,8-dihydro-5H-pteridin-6-one]: the pIC50 (on His-AKT (Full Length); in assay [1]) was less than 6.00 throughout.

For the origin of these results see patent US9315517B2, “Imidazol-piperidinyl derivatives as modulators of kinase activity” (Merck Patent GmbH, priority 2012, dated 2016).
